Key:
[1] = test system: iAstro (astrocyte control); assay: EC50 (inflection of fitted growth-inhibition curve) (log10 M)
Summary of the method: (§1)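 Treatment used a pin tool and a 10-point threefold dilution series, mean top concentration 35 μM, run in triplicate on patient-derived pHGG/DIPG cell lines and astrocyte controls in 1% Geltrex-coated 384-well plates. Plates were kept at 37 °C, 5% CO2 for 7 days (iAstro: 3 days). Log2-transformed CellTiter-Glo luminescence was scaled per plate to % activity between negative (solvent) and positive control wells and pooled before fitting. EC50 and maximal response (yFin) came from the three- or four-parameter log-logistic fit chosen by lowest AICc.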

[2] = test system: HABS (astrocyte control); assay: as above
Summary of the method: as §1

[3] = test system: HGGX2 (paediatric high-grade glioma line); assay: as above
Summary of the method: as §1

[4] = test system: DIPGX37 (H3.3 K27M diffuse intrinsic pontine glioma line); assay: as above
Summary of the method: as §1

[5] = test system: SUDIPGVI (diffuse intrinsic pontine glioma line); assay: as above
Summary of the method: as §1

[6] = test system: SUDIPGXIX (diffuse intrinsic pontine glioma line); assay: as above
Summary of the method: as §1

[7] = test system: HGGX6 (H3.3 G34R paediatric high-grade glioma line); assay: as above
Summary of the method: as §1

[8] = test system: SUDIPGIV (diffuse intrinsic pontine glioma line); assay: as above
Summary of the method: as §1

[9] = test system: HGGX42 (H3.3 G34R paediatric high-grade glioma line); assay: as above
Summary of the method: as §1

[10] = test system: SUDIPGXIII (diffuse intrinsic pontine glioma line); assay: as above
Summary of the method: as §1

[11] = test system: DIPGX9 (diffuse intrinsic pontine glioma line); assay: as above
Summary of the method: as §1

[12] = test system: HGGX39 (paediatric high-grade glioma line); assay: as above
Summary of the method: as §1

[13] = test system: DIPGX29 (H3.3 K27M diffuse intrinsic pontine glioma line); assay: as above
Summary of the method: as §1

[14] = test system: DIPGX7 (H3.3 K27M diffuse intrinsic pontine glioma line); assay: as above
Summary of the method: as §1

[15] = test system: SUDIPGXVII (diffuse intrinsic pontine glioma line); assay: as above
Summary of the method: as §1

[16] = test system: SUDIPGXXI (diffuse intrinsic pontine glioma line); assay: as above
Summary of the method: as §1

[17] = test system: iAstro; assay: area under dose-response curve of % growth inhibition (log2 RLU vs DMSO / staurosporine), 1e-11 to 1e-4 M (% x log10 M); higher = more growth inhibition
Summary of the method: (§2)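 Patient-derived pHGG/DIPG cell lines and astrocytes were plated in 384-well plates coated with 1% Geltrex and treated in triplicate with a 10-point threefold dilution series whose mean top concentration was 35 μM, for 7 days (3 days for iAstro) at 37 °C and 5% CO2. CellTiter-Glo luminescence was log2-transformed and scaled on each plate to % activity between solvent and positive controls. Area under the curve came from the trapezoid rule applied to a fitted log-logistic curve, or to a smoothing spline where the sigmoid fit failed.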

[18] = test system: SUDIPGVI; assay: as above
Summary of the method: as §2

| Structure (SMILES) | EC50 (log10 M) [1] | EC50 (log10 M) [2] | EC50 (log10 M) [3] | EC50 (log10 M) [4] | EC50 (log10 M) [5] | EC50 (log10 M) [6] | EC50 (log10 M) [7] | EC50 (log10 M) [8] | EC50 (log10 M) [9] | EC50 (log10 M) [10] | EC50 (log10 M) [11] | EC50 (log10 M) [12] | EC50 (log10 M) [13] | EC50 (log10 M) [14] | EC50 (log10 M) [15] | EC50 (log10 M) [16] | area under dose-response curve [17] | area under dose-response curve [18] |
| --- | --- | --- | --- | --- | --- | --- | --- | --- | --- | --- | --- | --- | --- | --- | --- | --- | --- | --- |
| CC(=O)c1ccc2c(c1)c1cc(C(C)=O)ccc1n2CCNC(C)C [CBL-0137] | -6.54 | -6.08 | -5.6 | -5.98 | -5.09 | -6.28 | -5.37 | -5.61 | -5.67 | -5.14 | -6.06 | -5.42 | -5.42 | -5.22 | -5.23 | -6.51 | 57.3 | 109 |
| O=C(Nc1ccc(Nc2nccc(Nc3cc(C4CCCC4)[nH]n3)n2)cc1)Nc1cccc(C(F)(F)F)c1 [CD532] | -6.36 | -5.37 | -6.21 | -6.42 | -6.5 | -6.52 | -6.3 | -6.47 | -6.66 | -6.36 | -6.65 | -5.92 | -6.34 | -6.51 | -6.47 | -7.24 | 213 | 272 |
| NC1CCC(Nc2cc(-c3cccc(NCc4cccc(F)c4)n3)c(Cl)cn2)CC1 (stereo not given) [CDK9-IN-2] | -5.35 | -5.73 | -5.72 | -6.76 | -6.92 | -6.93 | -6.96 | -6.76 | -7 | -5.75 | -7.13 | -5.75 | -6.87 | -6.76 | -6.67 | -7.4 | 135 | 209 |
| C[C@@H](Oc1cc(-c2cnn(C3CCNCC3)c2)cnc1N)c1c(Cl)ccc(F)c1Cl [CRIZOTINIB] | -4.89 | -4.84 | -5.11 | -4.84 | -5.01 | -5.23 | -4.67 | -4.85 | -5.15 | -4.81 | -5.11 | -4.69 | -4.83 | -4.88 | -4.9 | -5.77 | 78 | 112 |
| COc1ccc(-c2nc(N3CCOCC3)c3sc(CN(C)c4ncc(C(=O)NO)cn4)cc3n2)cn1 [CUDC-907] | -6.31 | -6.29 | -7 | -6.78 | -6.96 | -6.9 | -6.65 | -6.82 | -7.01 | -5.71 | -7.42 | -6.9 | -6.81 | -7.01 | -6.74 | -7.9 | 181 | 290 |
